Assay results as given in patent publication US20260048142A1, “METAL-CHELATED POLYPHENOL COMPLEX NANOPARTICLE, DRUG-LIPID PARTICLE, PREPARATION METHODS FOR THE SAME, AND USES THEREOF” (priority 2022, published 2026).
Like-named read-outs stand apart in the source and are kept apart here.

System: 293T cells
Assay: CCK8 cell activity, median lethal dose IC50
Format: cell-based, Human
Method: After incubating 293T cells with different concentrations of the metal-chelated polyphenol complex ([…]), cationic lipid (DOTAP, 0, 0.1, 0.3, 0.9, 2.7, 8.1, 24.3, 72.9, 218.7 μM) and ionizable lipid (ALC0315, 0, 0.1, 0.3, 0.9, 2.7, 8.1, 24.3, 72.9, 218.7 μM) for 48 hours, cell activity was detected using a CCK8 activity detection kit, and the median lethal dose IC50 of the metal-chelated polyphenol complex, cationic lipid (DOTAP) and ionizable lipid (ALC0315) for 293T cells was calculated respectively.
• Cell culture: cells were cultivated with DMEM culture medium containing 10% FBS and 1% Penicillin-Streptomycin Solution, and wait until the cell density reached 80%-90% of the culture bottle; • The remaining culture medium in the culture bottle was washed with PBS, the culture bottle was added with trypsin, and quickly transferred to a 37° C. incubator containing 5% CO2. During close observation, when the cells become slightly round, culture medium was added to stop digestion. The mixture was transferred to a centrifuge tube, centrifuged at 1500 RPM for 5 minutes, and the cells were resuspended with fresh culture medium; • Counting: the cell suspension was diluted to 10,0000 cells per 1 mL according to the purpose, 100 μL per well in a 96-well plate, and at least 5 replicates per group. Drug was added after 24 h of incubation at 37° C., 5% CO2; • After drug incubation for 48 h, 10% CCK8 was added, incubated for 1-3 h, and absorbance was measured by an ELISA reader at 450 nm;
[formula] • IC50 calculation method: with survival rate as the ordinate and drug concentration as the abscissa, IC50 was calculated by Graphpad using [Inhibitor] vs. normalized response-Variable slope analysis method.
The calculation method of IC50 is as described in Example 10.

Compound | IC50 (Homo sapiens, HEK-293T, 48 h) | IC50 (Homo sapiens, HEK-293T, Table 4-3, median lethal dose for 293T cells, CCK8, read-out: IC50) | IC50 (Table 2-2, median lethal dose for 293T cells, 48 hours, CCK8, read-out: IC50) | IC50 (Table 4-3, median lethal dose for 293T cells, CCK8, read-out: IC50)
CCCCCCCCC(CCCCCC)C(=O)OCCCCCCN(CCCCO)CCCCCCOC(=O)C(CCCCCC)CCCCCCCC (stereo not shown) [ALC0315] | 115 µM | 115 µM | – | –
CCCCCCCC/C=C\CCCCCCCC(=O)OCC(C[N+](C)(C)C)OC(=O)CCCCCCC/C=C\CCCCCCCC (stereo not shown) [DOTAP, N-(2,3-dioleoyloxy) propyl)-N,N, N-trimethylammonium chloride] | – | – | 25.7 µM | 25.7 µM
